Source: paper PMC2910156 (Journal of neurochemistry, 2010)

Target: α-synuclein (E46K α-syn) (Homo sapiens, UniProt P37840, E46K)
Assay: Thioflavin T fibrillization assay with purified E46K α-syn
Format: biochemical

## O=c1cc(-c2ccccc2)oc2cc(O)c(O)c(O)c12 [Baicalein]
  IC50: ~10 µM
